The record followed here is ChEMBL document CHEMBL3507680, “University of Dundee, Gates Library screen for HepG2 cell viability”.

SMILES strings stand for the structures.

The series in a line: Human HepG2 cell viability assay in 384 well format. The format is toxicity, cell-based. Details: dose 125 nL, time 70.5 hour; cytotoxicity at 70.5 h: concentration not given beside the values. To be noted: HepG2 cells, read-out: Inhibition.
As to `NC(=O)c1c(-c2ccc(Cl)cc2)csc1NC(=O)CCC(=O)O`, the cytotoxicity at 70.5 h was -4.48%.

In the case of `Cc1nn(C)c(C)c1C1SCC(=O)Nc2c1c(O)nn2C(C)C` (centres undefined), the cytotoxicity at 70.5 h is -28.8%.

Take `COc1cc(C(=O)N2CCCC(c3cc(C)[nH]n3)C2)cc(OC)c1C` (centres undefined): the cytotoxicity at 70.5 h turned out to be 29%.

On to `COCCN1Cc2ccccc2C2(CCN(C(=O)c3ccno3)CC2)C1`, for which the cytotoxicity at 70.5 h worked out at 2.49%.

As to `CCc1ccc2nc(C)cc(C(=O)NC3CCNC3=O)c2c1` (centres undefined), the cytotoxicity at 70.5 h turned out to be 0.829%.

In the case of `Cn1cnc(S(=O)(=O)N2C[C@H]3CN(Cc4cccnc4)C[C@H]3C2)c1`, the cytotoxicity at 70.5 h came out at 1.66%.

As for `Cn1c(=O)c2cc(C(=O)NCCc3ccccc3)ccc2n(C)c1=O`, the cytotoxicity at 70.5 h was -1.15%.

Regarding `O=c1[nH]c(NC2CCCC2)nc2nccc(-c3ccco3)c12`, the cytotoxicity at 70.5 h is -8.71%.

For the compound `COc1ccc(C(NCc2cccc(O)c2)C2CC2)cc1` (centres undefined), the cytotoxicity at 70.5 h stood at 16.8%.

Regarding `Cc1nccnc1N1C[C@H]2CN(C3CCOCC3)C[C@@]2(C(=O)O)C1`, the cytotoxicity at 70.5 h was 2.61%.

On to `CCc1ccccc1CNC(=O)CCc1cnn(C)c1`, for which the cytotoxicity at 70.5 h is -8.72%.

For the compound `CCC(C)(NCC(=O)N(c1ccccc1)C(C)C)c1nc(C)cs1` (centres undefined), the cytotoxicity at 70.5 h worked out at 2.38%.

Consider `O=C(NCCCC(=O)N1CCN(CC2CC2)c2ccccc21)C1CC1`, for which the cytotoxicity at 70.5 h is -7.6%.

Take `COc1ncc(-c2ccc(O)cc2)c(OC)n1`: the cytotoxicity at 70.5 h is -6.77%.

On to `COC1CN(C(=O)Nc2ccccc2)CCC(=O)N(C)c2ccccc21` (centres undefined), for which the cytotoxicity at 70.5 h is -0.759%.

For `Cc1cnc(CCN(C)C(=O)c2ccc(O)nc2C)s1`, the cytotoxicity at 70.5 h was -2.62%.

In the case of `CC1(c2ccccc2)CCC(=O)N(CC2(N3CCOCC3)CCCC2)C1` (centres undefined), the cytotoxicity at 70.5 h turned out to be 6.77%.

On to `CN(CC(O)C1CC1)C(=O)c1ccc(-c2nc(C3CC3)no2)cc1` (centres undefined), for which the cytotoxicity at 70.5 h turned out to be 2.53%.

Regarding `O=C(CO)N1CCC2(CC1)CC(=O)N(Cc1cc(F)cc(F)c1)C2`, the cytotoxicity at 70.5 h is -1.76%.

On to `CC(C)=CCCC(C)CN1CCC(n2cc(C(C)(C)O)nn2)CC1` (centres undefined), for which the cytotoxicity at 70.5 h is -8.45%.

With `CCOCC1CN(CCN(C)C)Cc2cnn(CC3CCCC3)c21` (centres undefined), the cytotoxicity at 70.5 h came to 4.97%.

Turning to `COCC(=O)NC(C)c1sc(-c2ccccc2F)nc1C` (centres undefined), the cytotoxicity at 70.5 h is -2.79%.

With `COCCN1CCc2cc(C(=O)NCC3CC3)c(NC(C)C)nc2CC1`, the cytotoxicity at 70.5 h came to 24.8%.

`CC(=O)NCC(=O)N1CCOCC(Cc2ccc3c(ccn3C)c2)C1` (centres undefined): the cytotoxicity at 70.5 h is -8.14%.

As for `O=C(c1cccnc1N1CCOCC1)N1CCCC(n2cncn2)C1` (centres undefined), the cytotoxicity at 70.5 h was determined as 18.2%.

`Fc1cccc(-c2nnn3c2COCC(CNCc2nccs2)C3)c1` (centres undefined): the cytotoxicity at 70.5 h is -11.8%.

As for `NC(=O)Cc1ccc(OCc2noc(C(=O)N3CCCC3)n2)cc1`, the cytotoxicity at 70.5 h was -23.4%.

`Fc1ccc(CN2CCOC(Cn3cncn3)C2)c2ncccc12` (centres undefined): the cytotoxicity at 70.5 h is -3.84%.

For `O=C(NCc1cc[nH]n1)N1CCN(c2ccccc2Cl)CC1`, the cytotoxicity at 70.5 h turned out to be 6.1%.

Consider `Cc1ccc(C)c(OC2CCN(C(=O)c3ccc(C)[nH]c3=O)CC2)c1`, for which the cytotoxicity at 70.5 h was -11%.

For `O=C(c1ccc(O)c(Cl)c1)N1C[C@@H](CN2CCCCCC2)[C@@H](CO)C1`, the cytotoxicity at 70.5 h amounted to 3.21%.

With `CN1CCC(NC(=O)CC2CN(Cc3ccccc3)CCO2)CC1` (centres undefined), the cytotoxicity at 70.5 h is -5.42%.

For the compound `Fc1cc(CNCc2ccc3c(c2)CCO3)ccc1N1CCOCC1`, the cytotoxicity at 70.5 h is -6.5%.

Take `CNC(=O)[C@@H](c1ccccc1)N1CCC[C@H]1C(=O)NCc1cccnc1`: the cytotoxicity at 70.5 h was -2.18%.

With `c1cncc(OC[C@@]23CCC[C@@H]2CN(CC2CCOCC2)C3)c1`, the cytotoxicity at 70.5 h was -1.42%.

Consider `N[C@H]1CN(C(=O)c2cnc3cc(Cl)ccc3c2O)C[C@@H]1C1CC1`, for which the cytotoxicity at 70.5 h was 5.93%.

Take `Cc1[nH]nc(CCC(=O)N2CCOC(CCc3ccccc3)C2)c1C` (centres undefined): the cytotoxicity at 70.5 h was -0.521%.

For `O=C(NCc1cncc2c1CCN(Cc1cccs1)C2)C1CC1`, the cytotoxicity at 70.5 h is -13.8%.

Take `CCCN1CCCn2nc(CNS(=O)(=O)c3ccc(C)cc3)cc2C1`: the cytotoxicity at 70.5 h is -6.85%.

As to `Cc1nc(CN(C)Cc2cc3c(cc2OC(F)F)OCO3)oc1C`, the cytotoxicity at 70.5 h was 4.89%.

On to `COc1ccc(CNc2c(C)nn(C(C)C)c2C)cc1OC`, for which the cytotoxicity at 70.5 h was -2.06%.

In the case of `Cc1ccccc1OCCN1CCCC(c2cc(C(N)=O)[nH]n2)C1` (centres undefined), the cytotoxicity at 70.5 h is -6.71%.

`CN(Cc1nccs1)C1CCN(c2ncccn2)CC1`: the cytotoxicity at 70.5 h was -8.38%.

For `COc1cccc(-n2nnc(C(=O)N3CCNC(=O)C3)c2C)c1`, the cytotoxicity at 70.5 h was 28%.

In the case of `COCCc1noc(Cn2ccc3ccccc3c2=O)n1`, the cytotoxicity at 70.5 h was -0.672%.

On to `Cc1ccccc1-n1cnc(Cl)c1C(=O)O`, for which the cytotoxicity at 70.5 h is -8.21%.

As to `CCNC(=O)[C@@H]1CN(Cc2ccccc2)C[C@H]1C(=O)c1ccc(F)cc1`, the cytotoxicity at 70.5 h is -0.813%.

Turning to `CS(=O)(=O)Cc1noc(CN2CCN(c3ccccc3Cl)CC2)n1`, the cytotoxicity at 70.5 h was -76.6%.

Turning to `CNC(=O)CCc1cc(C)nc(C2CCN(C3CCCCC3)CC2)c1`, the cytotoxicity at 70.5 h is -0.853%.

For `Cc1nc(OCC(=O)N2CCCC2)cc(-n2cccn2)n1`, the cytotoxicity at 70.5 h is -7.15%.

With `CSCc1cccc(S(=O)(=O)NCCO)c1`, the cytotoxicity at 70.5 h is 0.997%.

As for `CNC(=O)c1c[nH]nc1C1CCCN1c1ncccn1` (centres undefined), the cytotoxicity at 70.5 h is -4.93%.

With `CC(C)NC(=O)C1CCC2(CCN(Cc3cnn(C)c3)CC2)CO1` (centres undefined), the cytotoxicity at 70.5 h was -17%.

Take `Cc1ccc(CC(=O)Nc2ccc(CS(C)(=O)=O)c(F)c2)cc1`: the cytotoxicity at 70.5 h was -2.59%.

Take `CCNC(=O)N1CCC2(CC1)CCn1c(-c3cccc(OC)c3)cnc12`: the cytotoxicity at 70.5 h is -6.74%.

Regarding `Cc1cnc(CN2CCCC(c3nc4ccccc4n3C(C)C)C2)o1` (centres undefined), the cytotoxicity at 70.5 h turned out to be 20.6%.

For the compound `c1ccc(-c2ncn(CCCN3CCOCC3)c2-c2ccncc2)cc1`, the cytotoxicity at 70.5 h was -6.69%.

Regarding `O=C(c1ccc(=O)[nH]c1)N1CCCC1c1nc2cc(F)ccc2[nH]1` (centres undefined), the cytotoxicity at 70.5 h was -3.97%.

Take `CC(Cn1cccn1)NCc1csc(Cc2ccccc2)n1` (centres undefined): the cytotoxicity at 70.5 h amounted to 0.563%.

Turning to `C[C@@H](O)CNC(=O)c1nc(CC(=O)Nc2cccc(C(F)(F)F)c2)no1`, the cytotoxicity at 70.5 h is -23.7%.

As for `COc1c(Cl)cc(C(=O)NCc2n[nH]c(C)n2)cc1Cl`, the cytotoxicity at 70.5 h is 2.06%.

For `O=C(CC1=CCCCC1)NCCc1csc(N2CCCC2)n1`, the cytotoxicity at 70.5 h was -0.0397%.

Turning to `Cc1cnn(CC2CCCCN2C(=O)c2nccnc2N)c1` (centres undefined), the cytotoxicity at 70.5 h was -4.52%.

On to `Cc1ccc(C(=O)N2CCC3(CC2)COC(COc2cccnc2)C3)o1` (centres undefined), for which the cytotoxicity at 70.5 h is -7.65%.

As for `Cc1ncc(CN2CCC(N(C)Cc3noc(C4CC4)n3)C2)s1` (centres undefined), the cytotoxicity at 70.5 h is 19%.

For `CC(=O)N1CCc2c(nc(N(C)C)nc2N(C)CC2CCCO2)C1` (centres undefined), the cytotoxicity at 70.5 h is -6.61%.

Consider `Cn1cc(C(=O)NCc2cn3c(n2)CN(CC2CCCC2)CC3)cn1`, for which the cytotoxicity at 70.5 h is -112%.

With `N[C@H]1CC[C@@H](n2cc(C(=O)NC3COc4ccccc43)nn2)CC1` (some centres undefined), the cytotoxicity at 70.5 h is -0.524%.

Turning to `CS(=O)(=O)N1CCc2c(cccc2NC(=O)Nc2ccccn2)C1`, the cytotoxicity at 70.5 h was found to be 10.3%.

For `CC(NCC1CCN(CCO)CC1)c1ccc(OC(F)(F)F)cc1` (centres undefined), the cytotoxicity at 70.5 h was -2.01%.

In the case of `Cc1nc(CN2CCOC(Cn3cccn3)C2)no1` (centres undefined), the cytotoxicity at 70.5 h is -3.79%.

Turning to `Cc1nn(C)c2nc(O)cc(C(F)(F)C(F)(F)F)c12`, the cytotoxicity at 70.5 h was determined as 0.0459%.

For `CCn1cnc(NC(=O)N2CCC(c3ccc(Cl)cc3)C2)n1` (centres undefined), the cytotoxicity at 70.5 h worked out at 11.3%.

Regarding `O=C(c1ccco1)N1CCCC12CCN(c1ncccn1)CC2`, the cytotoxicity at 70.5 h was -7.14%.

In the case of `OCCOc1ccccc1CN1CCCC(O)(CO)C1` (centres undefined), the cytotoxicity at 70.5 h came out at 9.78%.

Regarding `CCS(=O)(=O)NCC1OCCc2cn(CC3CCOCC3)nc21` (centres undefined), the cytotoxicity at 70.5 h amounted to 11.8%.

In the case of `NCC1(c2cccc(Br)c2)CCOCC1`, the cytotoxicity at 70.5 h was -5.45%.

As for `CN(Cc1ccccn1)C1COC2(CCN(Cc3cccnc3)CC2)C1` (centres undefined), the cytotoxicity at 70.5 h stood at 24.4%.

As to `Cc1cccc(CNC(=O)Nc2ccn(CCCC(=O)N(C)C)n2)c1`, the cytotoxicity at 70.5 h is -7.9%.

`CC(C)=CCn1ncc(N2CCCCC2)cc1=O`: the cytotoxicity at 70.5 h is -3.13%.

With `Cc1ccc(CN(C(=O)c2cccc(NC(N)=O)c2)C2CC2)o1`, the cytotoxicity at 70.5 h is -10.5%.

As to `Cc1c(C(=O)N(C)CC(C)O)sc2nc(C(F)(F)F)ccc12` (centres undefined), the cytotoxicity at 70.5 h is -9.55%.

Take `CN(C)CC(C)(C)Cn1cnc(-c2ccccc2)c1-c1cccc(O)c1`: the cytotoxicity at 70.5 h is -10.8%.

In the case of `Cc1nnc(N2CCC(CNC(=O)OC(C)(C)C)CC2)c(C#N)c1C`, the cytotoxicity at 70.5 h was found to be 1.28%.

As to `COC(=O)CCN(C)C(=O)c1ccc(-c2cscn2)cc1`, the cytotoxicity at 70.5 h amounted to 4.45%.

As for `CCc1ccc(CC)c(NCC(=O)N2CCCC(NC(C)=O)C2)c1` (centres undefined), the cytotoxicity at 70.5 h was -6.55%.

For the compound `COc1ccccc1OCc1cc(C(=O)N2CCC(C(C)O)CC2)n[nH]1` (centres undefined), the cytotoxicity at 70.5 h was -5.66%.

Consider `CC(C)Nc1cccc(CC2CCN(C)C2)n1` (centres undefined), for which the cytotoxicity at 70.5 h is -5.89%.

As for `CN1CCCC1c1ccnc2nccn12` (centres undefined), the cytotoxicity at 70.5 h is -7.34%.

Turning to `O=C1O[C@@H]2CN(CCc3ccccc3)C[C@@H]2N1CCCN1CCOCC1`, the cytotoxicity at 70.5 h is -3.23%.

In the case of `CN(Cc1ccccc1)C1COC2(CCN(Cc3nccs3)CC2)C1` (centres undefined), the cytotoxicity at 70.5 h worked out at 10%.

`O=S(=O)(CCNC1CCc2ncnn2C1)c1ccccc1` (centres undefined): the cytotoxicity at 70.5 h is -2.34%.

As to `O=C1COC2(CCN(c3cccc(F)c3)CC2)CN1Cc1ccccn1`, the cytotoxicity at 70.5 h was determined as 0.382%.

Turning to `COCCN1CCC(NCc2c(C)nn(C)c2N(C)C)CC1`, the cytotoxicity at 70.5 h is -4.85%.

Turning to `CO[C@H]1CN(C(=O)c2ccc3c(c2)OCO3)[C@@H]2COC[C@H]12`, the cytotoxicity at 70.5 h was 0.574%.

With `CC(NCCCC#N)c1ccc(-c2ccncc2)cc1` (centres undefined), the cytotoxicity at 70.5 h was determined as 14.3%.

`COCCn1ccc(NCc2cc3cc(F)ccc3o2)n1`: the cytotoxicity at 70.5 h is -6.3%.

Regarding `CN1C(=O)CC(c2ccccc2)C12CCN(c1ncc(F)cn1)CC2` (centres undefined), the cytotoxicity at 70.5 h was -1.24%.

As for `COCc1cncc2c1CCN(C(=O)c1cccc(C#N)c1)C2`, the cytotoxicity at 70.5 h was -8.16%.
